Results as given in patent US12282027B2, “High-throughput NMR approach for in-membrane protein ligand screening” (University of South Florida, priority 2021, dated 2025).

biological target: T1, A1R receptor (Homo sapiens, UniProt P30542); experiment: In-membrane WaterLOGSY NMR, 10× diluted A1R in yeast cell membrane (YCM); assay type: binding; details: 10× diluted A1R in YCM from Pichia pastoris; FIG. 5, FIG. 8
T1 construct: FLAG (N); His10 (C); TEV protease cleavage site (N); α-Factor peptide (secretion signal) (N); made in house; host or cells: Pichia pastoris
T1 sequence (P30542 1-326): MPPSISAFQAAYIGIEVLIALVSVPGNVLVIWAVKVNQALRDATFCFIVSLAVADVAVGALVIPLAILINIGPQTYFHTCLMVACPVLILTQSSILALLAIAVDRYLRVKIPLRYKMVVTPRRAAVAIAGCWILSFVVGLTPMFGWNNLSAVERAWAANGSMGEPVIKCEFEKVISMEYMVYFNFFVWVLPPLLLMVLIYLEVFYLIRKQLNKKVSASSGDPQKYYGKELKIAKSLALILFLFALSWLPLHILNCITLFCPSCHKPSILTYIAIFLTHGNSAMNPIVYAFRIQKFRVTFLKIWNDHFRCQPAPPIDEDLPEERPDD
Procedure: The human A1 receptor and A2A receptor were cloned into pPIC9K with an N-terminal Flag tag and a C-terminal His tag. […] The lysed cell pellets were centrifuged at 9,720×g for 30 min to remove all debris and keep the released membrane fraction parts.
At the end of fermentation, the cell pellets were collected after centrifugation at 4,000×g for 15 min at 4° C. and then washed once with 50 mM HEPES, pH 7.4, 100 mM NaCl buffer. The cell pellets were resuspended into Receptor Lysis Buffer (50 mM HEPES buffer, 10% glycerol, 100 mM NaCl, 2.5 mM EDTA) using the ratio of cell pellets to buffer equal to 1:4. […] The disrupted cell pellets were centrifuged at 9,720×g for 30 min at 4° C. to discard unbroken cells and cellular debris.
NMR samples for membranes typically consisted of 270-300 μL volumes of the cell membrane in 50 mM HEPES buffer, 10% glycerol, 100 mM NaCl, 2.5 mM EDTA, doped with 10% D2O and different concentration ligands prepared in DMSO as needed.
STD and WaterLOGSY experiments were conducted at a ^1H frequency of 600 MHz using Varian Inova spectrometer. 5 mm diameter NMR tubes with a sample volume of 270-300 μL were used in all experiments. Solutions were buffered using a HEPES buffer corrected to pH 7.4 and 10% glycerol. The sample preparation is exemplified as follows, the compound (solution in DMSO-d6), 30 μL D2O was added to 240 μL membrane in an Eppendorf tube. The resulting solution was spun to ensure full mixing and transferred to a 5 mm NMR tube before the run. Both STD and WaterLOGSY spectra were recorded for each sample. WaterLOGSY spectra in the absence of protein receptor were recorded.

Compound | WaterLOGSY NOE signal of the ligand (negative NOE = specific binding)
CTAP | absence of obvious NOE signals
N[C@@H](Cc1ccc(F)cc1)C(=O)O [4-Fluorophenylalanine] | positive NOEs
N[C@@H](Cc1ccc(O)c(F)c1)C(=O)O [3-fluorotyrosine] | absence of obvious NOE signals
